Measurements from USRE44971E1, “Method for selection of transformed cells” (priority 2006, dated 2014).

Columns and labels:
[1] = system: transgenic soybean plants with DMO-encoding polynucleotide, Event 4; test: Greenhouse post-V3 spray of auxin-like herbicides, visual injury, transgenic Event 4; format: in vivo
Protocol: (§1) An analysis was carried out to determine whether soybean plants having DMO-encoding polynucleotide could deactivate other auxin-like herbicides in addition to dicamba. This was carried out by applying various concentrations of commercially available formulations of other auxin-like herbicides such as 2,4-D (Helena, Collierville, Tenn.), MCPA (Agriliance, St. Paul, Minn.), triclopyr (GARLON 3A; Dow Elanco, Indianapolis, Ind.), clopyralid (STINGER; Dow Elanco, Indianapolis, Ind.), picloram (TORDON 22K; Dow Elanco, Indianapolis, Ind.), or Banvel or Clarity (BASF, Raleigh, N.C.) to DMO containing plant tissues or plants.
(§2) Transgenic soybean plants were obtained by Agrobacterium-mediated transformation of soybean explants with a DMO-encoding polynucleotide as described above for the events designated Events 1-4. A non-transgenic line was used as a control. Non-transgenic and transgenic soybean seeds were planted into 3,5-inch square plastic pots containing Redi-earth™ (Scotts-Sierra Horticultural Products Co., Marysville, Ohio). The pots were placed on capillary matting in 35 inch×60 inch fiberglass watering trays for overhead and/or sub-irrigation for the duration of the test period so as to maintain optimum soil moisture for plant growth. The pots were fertilized with Osmocote (14-14-14 slow release; Scotts-Sierra Horticultural Products Co., Marysville, Ohio) at the rate of 100 gm/cu.ft. to sustain plant growth for the duration of greenhouse trials. The plants were grown in greenhouses at 27°/21° C. day/night temperature, with relative humidity between 25%-75% to simulate warm season growing conditions of late spring. A 14 h minimum photoperiod was provided with supplemental light at about 600 μE as needed.
(§3) All herbicide applications were made with the track sprayer using a Teejet 9501E flat fan nozzle (Spraying Systems Co, Wheaton, Ill.) with air pressure set at a minimum of 24 psi (165 kpa). The spray nozzle was kept at a height of about 16 inches above the top of plant material for spraying. The spray volume was 10 gallons per acre or 93 liters per hectare. Applications were made when plants had reached V-3 stage.
(§4) All treated plants in greenhouse trials were visually assessed at about 4, 14, 18, and 21 days after treatment (DAT) for injury on a scale of 0 to 100 percent relative to untreated control plants, with zero representing “no” injury and 100% representing “complete” injury or death. Data were collected using a palm top computer and analyzed using standard statistical methods.

[2] = system: non-transgenic soybean plants; test: Greenhouse post-V3 spray of auxin-like herbicides, visual injury, non-transgenic line; format: in vivo
Protocol: as §1, §2, §3, §4

[3] = system: transgenic soybean plants having DMO-encoding polynucleotide; test: Greenhouse injury trial, overall statements for transgenic soybean; format: in vivo; details: for tolerance of transgenic soybean relative to the non-transgenic line: greenhouse trial, post-V3 application; for assessment of application rate: 280 g ae/ha, transgenic soybean
Protocol: as §1, §2, §3, §4

[4] = system: soybean explants inoculated with Agrobacterium harboring pMON73691 (DMO and GFP genes); test: Selection of pMON73691-inoculated soybean explants with 2,4-D or dicamba in liquid medium, GFP+ buds; format: cell-based; details: for # Explants w/GFP + buds/young shoots at 48DAI: 375 explants inoculated, pMON73691
Protocol: Freshly isolated soybean explants (mature embryo axes without cotyledons) were inoculated with Agrobacterium strain ABI harboring pMON73691 (containing DMO and GFP genes). After 3-d co-culture with Agrobacterium at 23° C. and a photoperiod of 16-h light and 8-h dark, the explants were cultured in liquid delay medium which contained modified woody plant medium supplemented with 5 mg/l BAP, 200 mg/l carbenicillin, 200 mg/l cefotaxime and 100 mg/l ticarcillin. The explants were in the delay medium for 4 days. They were then transferred to liquid selection medium in PLANTCONs. The selection medium was the same as the delay medium except of addition of various levels of 2,4-D (0.01, 0.1, 1.0 or 2.0 mg/L) or 0.01 mg/L dicamba as shown in Table 9 below. Each PLANTCON contained 60 ml of the selection medium and one piece of foam sponge with 5 slits. Twenty-five explants were evenly inserted into the slits. The cultures were maintained at 28° C. and a photoperiod of 16-h light and 8-h dark, and were examined periodically under a […] equipped for detecting GFP expressing tissues.

[5] = system: transgenic soybean plants with DMO-encoding polynucleotide, Event 1; test: Greenhouse post-V3 spray of auxin-like herbicides, visual injury, transgenic Event 1; format: in vivo
Protocol: as §1, §2, §3, §4

[6] = system: transgenic soybean plants with DMO-encoding polynucleotide, Event 2; test: Greenhouse post-V3 spray of auxin-like herbicides, visual injury, transgenic Event 2; format: in vivo
Protocol: as §1, §2, §3, §4

[7] = system: transgenic soybean plants with DMO-encoding polynucleotide, Event 3; test: Greenhouse post-V3 spray of auxin-like herbicides, visual injury, transgenic Event 3; format: in vivo
Protocol: as §1, §2, §3, §4

O=C(O)COc1ccc(Cl)cc1Cl [2,4-D, (2,4-dichlorophenoxy)acetic acid]
% injury relative to un-treated controls ([1]; 280 g ae/ha, 21 DAT): 45.8% | % injury relative to un-treated controls ([1]; 561 g ae/ha, 21 DAT): 84.2% | % injury relative to un-treated controls ([1]; 1120 g ae/ha, 21 DAT): 100.0% | % injury relative to un-treated controls ([2]; 280 g ae/ha, 21 DAT): 86.8% | % injury relative to un-treated controls ([2]; 561 g ae/ha, 21 DAT): 100.0% | % injury relative to un-treated controls ([2]; 1120 g ae/ha, 21 DAT): 100.0% | tolerance of transgenic soybean relative to the non-transgenic line [3]: tolerance | explant response observed ([4]; 0.01 or 0.1 mg/L in selection medium): extensive shoot growth | explant response observed ([4]; 1 or 2 mg/L in selection medium): Extensive callus development | # Explants w/GFP + buds/young shoots at 48DAI ([4]; selective agent 0.01 mg/L): 33 | # Explants w/GFP + buds/young shoots at 48DAI ([4]; selective agent 0.1 mg/L): 19 | # Explants w/GFP + buds/young shoots at 48DAI ([4]; selective agent 1 mg/L): 4 | # Explants w/GFP + buds/young shoots at 48DAI ([4]; selective agent 2 mg/L): 0 | % injury relative to un-treated controls ([5]; 280 g ae/ha, 21 DAT): 58.3% | % injury relative to un-treated controls ([5]; 561 g ae/ha, 21 DAT): 75.0% | % injury relative to un-treated controls ([5]; 1120 g ae/ha, 21 DAT): 100.0% | % injury relative to un-treated controls ([6]; 280 g ae/ha, 21 DAT): 64.2% | % injury relative to un-treated controls ([6]; 561 g ae/ha, 21 DAT): 94.7% | % injury relative to un-treated controls ([6]; 1120 g ae/ha, 21 DAT): 100.0% | % injury relative to un-treated controls ([7]; 280 g ae/ha, 21 DAT): 40.0% | % injury relative to un-treated controls ([7]; 561 g ae/ha, 21 DAT): 85.0% | % injury relative to un-treated controls ([7]; 1120 g ae/ha, 21 DAT): 100.0%

O=C(O)c1nc(Cl)ccc1Cl [Clopyralid, 3,6-dichloro-2-pyridinecarboxylic acid]
% injury relative to un-treated controls ([1]; 280 g ae/ha, 14 DAT): 99.7% | % injury relative to un-treated controls ([1]; 561 g ae/ha, 14 DAT): 100.0% | % injury relative to un-treated controls ([1]; 1120 g ae/ha, 14 DAT): 100.0% | % injury relative to un-treated controls ([2]; 280 g ae/ha, 14 DAT): 99.3% | % injury relative to un-treated controls ([2]; 561 g ae/ha, 14 DAT): 100.0% | % injury relative to un-treated controls ([2]; 1120 g ae/ha, 14 DAT): 100.0% | assessment of application rate [3]: too stringent | % injury relative to un-treated controls ([5]; 280 g ae/ha, 14 DAT): 99.2% | % injury relative to un-treated controls ([5]; 561 g ae/ha, 14 DAT): 100.0% | % injury relative to un-treated controls ([5]; 1120 g ae/ha, 14 DAT): 100.0% | % injury relative to un-treated controls ([6]; 280 g ae/ha, 14 DAT): 98.2% | % injury relative to un-treated controls ([6]; 561 g ae/ha, 14 DAT): 99.7% | % injury relative to un-treated controls ([6]; 1120 g ae/ha, 14 DAT): 100.0% | % injury relative to un-treated controls ([7]; 280 g ae/ha, 14 DAT): 99.3% | % injury relative to un-treated controls ([7]; 561 g ae/ha, 14 DAT): 100.0% | % injury relative to un-treated controls ([7]; 1120 g ae/ha, 14 DAT): 100.0%

Cc1cc(Cl)ccc1OCC(=O)O [MCPA, (4-chloro-2-methylphenoxy)acetic acid]
% injury relative to un-treated controls ([1]; 280 g ae/ha, 21 DAT): 88.3% | % injury relative to un-treated controls ([1]; 561 g ae/ha, 21 DAT): 98.8% | % injury relative to un-treated controls ([1]; 1120 g ae/ha, 21 DAT): 100.0% | % injury relative to un-treated controls ([2]; 280 g ae/ha, 21 DAT): 93.0% | % injury relative to un-treated controls ([2]; 561 g ae/ha, 21 DAT): 98.3% | % injury relative to un-treated controls ([2]; 1120 g ae/ha, 21 DAT): 100.0% | tolerance of transgenic soybean relative to the non-transgenic line [3]: tolerance | % injury relative to un-treated controls ([5]; 280 g ae/ha, 21 DAT): 72.5% | % injury relative to un-treated controls ([5]; 561 g ae/ha, 21 DAT): 99.3% | % injury relative to un-treated controls ([5]; 1120 g ae/ha, 21 DAT): 100.0% | % injury relative to un-treated controls ([6]; 280 g ae/ha, 21 DAT): 55.0% | % injury relative to un-treated controls ([6]; 561 g ae/ha, 21 DAT): 95.0% | % injury relative to un-treated controls ([6]; 1120 g ae/ha, 21 DAT): 99.7% | % injury relative to un-treated controls ([7]; 280 g ae/ha, 21 DAT): 55.0% | % injury relative to un-treated controls ([7]; 561 g ae/ha, 21 DAT): 95.8% | % injury relative to un-treated controls ([7]; 1120 g ae/ha, 21 DAT): 100.0%

Nc1c(Cl)c(Cl)nc(C(=O)O)c1Cl [Picloram, 4-amino-3,5,6-trichloro-2-pyridinecarboxylic acid]
% injury relative to un-treated controls ([1]; 280 g ae/ha, 14 DAT): 99.3% | % injury relative to un-treated controls ([1]; 561 g ae/ha, 14 DAT): 100.0% | % injury relative to un-treated controls ([1]; 1120 g ae/ha, 14 DAT): 100.0% | % injury relative to un-treated controls ([2]; 280 g ae/ha, 14 DAT): 99.3% | % injury relative to un-treated controls ([2]; 561 g ae/ha, 14 DAT): 100.0% | % injury relative to un-treated controls ([2]; 1120 g ae/ha, 14 DAT): 100.0% | assessment of application rate [3]: too stringent | % injury relative to un-treated controls ([5]; 280 g ae/ha, 14 DAT): 99.7% | % injury relative to un-treated controls ([5]; 561 g ae/ha, 14 DAT): 100.0% | % injury relative to un-treated controls ([5]; 1120 g ae/ha, 14 DAT): 100.0% | % injury relative to un-treated controls ([6]; 280 g ae/ha, 14 DAT): 99.3% | % injury relative to un-treated controls ([6]; 561 g ae/ha, 14 DAT): 100.0% | % injury relative to un-treated controls ([6]; 1120 g ae/ha, 14 DAT): 100.0% | % injury relative to un-treated controls ([7]; 280 g ae/ha, 14 DAT): 99.3% | % injury relative to un-treated controls ([7]; 561 g ae/ha, 14 DAT): 99.7% | % injury relative to un-treated controls ([7]; 1120 g ae/ha, 14 DAT): 100.0%

(2,4,5-trichlorophenoxy)acetic acid [Triclopyr]
% injury relative to un-treated controls ([1]; 280 g ae/ha, 14 DAT): 90.8% | % injury relative to un-treated controls ([1]; 561 g ae/ha, 14 DAT): 98.0% | % injury relative to un-treated controls ([1]; 1120 g ae/ha, 14 DAT): 99.2% | % injury relative to un-treated controls ([2]; 280 g ae/ha, 14 DAT): 86.7% | % injury relative to un-treated controls ([2]; 561 g ae/ha, 14 DAT): 97.3% | % injury relative to un-treated controls ([2]; 1120 g ae/ha, 14 DAT): 98.7% | assessment of application rate [3]: too stringent | % injury relative to un-treated controls ([5]; 280 g ae/ha, 14 DAT): 88.3% | % injury relative to un-treated controls ([5]; 561 g ae/ha, 14 DAT): 95.7% | % injury relative to un-treated controls ([5]; 1120 g ae/ha, 14 DAT): 99.3% | % injury relative to un-treated controls ([6]; 280 g ae/ha, 14 DAT): 86.7% | % injury relative to un-treated controls ([6]; 561 g ae/ha, 14 DAT): 98.7% | % injury relative to un-treated controls ([6]; 1120 g ae/ha, 14 DAT): 99.3% | % injury relative to un-treated controls ([7]; 280 g ae/ha, 14 DAT): 86.7% | % injury relative to un-treated controls ([7]; 561 g ae/ha, 14 DAT): 94.0% | % injury relative to un-treated controls ([7]; 1120 g ae/ha, 14 DAT): 96.3%
